# Values of other authors in patent publication US20080058642A1, “METHOD FOR DETECTING CORONARY ENDOTHELIAL DYSFUNCTION AND EARLY ATHEROSCLEROSIS” (BOARD OF REGENTS OF THE UNIVERSITY OF TEXAS SYSTEM, priority 2006, published 2008).
# Biological target: T1, ETA-receptor (Homo sapiens, UniProt P25101)
# T1 construct: host or cells: in vivo, heart failure trial
# T1 sequence (P25101 21-427): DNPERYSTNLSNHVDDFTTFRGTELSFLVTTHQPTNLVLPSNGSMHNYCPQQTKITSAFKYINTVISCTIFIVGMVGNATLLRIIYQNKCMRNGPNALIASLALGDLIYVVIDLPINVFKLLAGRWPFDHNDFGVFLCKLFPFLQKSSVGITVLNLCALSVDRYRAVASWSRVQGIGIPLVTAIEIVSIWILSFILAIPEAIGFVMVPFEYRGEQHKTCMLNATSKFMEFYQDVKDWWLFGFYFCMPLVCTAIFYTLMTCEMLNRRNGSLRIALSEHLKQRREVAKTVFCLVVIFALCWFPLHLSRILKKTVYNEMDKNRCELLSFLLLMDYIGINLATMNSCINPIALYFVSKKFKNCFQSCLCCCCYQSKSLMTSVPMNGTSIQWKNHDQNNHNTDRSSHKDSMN
# Settings: recent randomized trial; cited from earlier work
smiles,measurement,value
COc1cc(OC)nc(O[C@H](C(=O)O)C(OC)(c2ccccc2)c2ccccc2)n1 [Darusentan™],benefit in heart failure,no benefit
